Reference: patent publication US10383912B2, “Tunable pH-sensitive linker for controlled drug release” (Washington State University, priority 2014, dated 2019)

Experiments:
[1] = pH stability: half-lives for P—N bond hydrolysis of model linkers; assay type: physicochemical
Source text: The present disclosure provides a method of screening for conjugates that can deliver an agent at a specific pH. In one aspect, conjugates having formula (I) comprising various substituents neighboring the ionizable group and having varying length between the ionizable group and the phosphorus center could be screened to determine which conjugates will hydrolyze at pH 3.0, 3.5, 4.0, 4.5, 5.0, 5.5, 6.0, and 6.5. In another aspect, a specific conjugate can be screened to determine at which pH it will hydrolyze or which pH its rate of hydrolysis is the fastest. The hydrolysis of the conjugate can be monitored by nuclear magnetic resonance (NMR) (FIG. 6), HPLC, spectrophotometric methods, or mass spectrometry.
It was observed from studies on distance effects that proximity of a neighboring, but electronically isolated, functional group, can be used to alter the stability of a phorphoramidate bond.

[2] = Plasma stability of cleavable linkers; assay type: in vitro ADME
Method: When a conjugate is administered to a subject in vivo, its plasma stability is important. The present disclosure provides conjugates with the desired plasma stability. Plasma stability of cleavable linkers with the desired release profile are provided herein.

½ Lives for P—N Bond Hydrolysis, pH 3 [1]	½ Lives for P—N Bond Hydrolysis, pH 4.5 [1]	½ Lives for P—N Bond Hydrolysis, pH 5.5 ([1]; pH 5.5)	½ Lives for P—N Bond Hydrolysis, pH 7.4 [1]	½ Lives for P—N Bond Hydrolysis, pH 6.5 [1]	Compound	also measured
1.6 day days	133 days	16 day days	27 day days	8 days	O=P(O)(Nc1ccccc1)OCCCc1cccnc1 [Entry H7]	½ Lives for P—N Bond Hydrolysis, pH 4.5 (result in words) [1]: Stable; ½ Lives for P—N Bond Hydrolysis, pH 6.5 (result in words) [1]: STABLE
1.6 day days	8.9 day days	2.0 days	4 day days	8 days	O=P(O)(Nc1ccccc1)OCCCc1ccccn1 [Entry H45]	
0.32 hr		0.96 hr	9.6 hr	1.9 hr	O=P(O)(Nc1ccccc1)OCCc1ccccn1 [Entry H85]	
2.8 hr		1.6 days	16 days	4 days	O=P(O)(NCCc1ccccc1)OCCc1cccnc1 [Entry H97]	
4 days	20 days	8 days	16 days	2 days	O=P(O)(Nc1ccccc1)OCCc1cccnc1 [Entry H113]	½ Lives for P—N Bond Hydrolysis, pH 6.5 (result in words) [1]: Stable
		0.13 hr	2.1 hr	0.32 hr	O=P(O)(NCCc1ccccc1)OCCc1ccccn1 [Entry H119]	½ Lives for P—N Bond Hydrolysis, pH 3 (result in words) [1]: Unstable
0.48 hr		2.1 hr	1.3 days	3.9 hr	CN(c1ccccc1)P(=O)(O)OCCCc1ccccn1 [Entry H135]	

Second part, the molecule before the results:

Compound	½ Lives for P—N Bond Hydrolysis, pH 3 [1]	½ Lives for P—N Bond Hydrolysis, pH 4.5 [1]	½ Lives for P—N Bond Hydrolysis, pH 5.5 ([1]; pH 5.5)	½ Lives for P—N Bond Hydrolysis, pH 7.4 [1]	½ Lives for P—N Bond Hydrolysis, pH 6.5 [1]	also measured
O=P(O)(NCCc1ccccc1)OCCCc1cccnc1 [Entry H5]	1.9 hr	19.3 hr	8 day days	90 day days		½ Lives for P—N Bond Hydrolysis, pH 6.5 (result in words) [1]: Stable
CN(CCc1ccccc1)P(=O)(O)OCCCc1cccnc1 [Entry H9]	0.48 hr		3.2 hr	2.7 days	19.3 hr	½ Life for P—N Bond Hydrolysis, Plasma ([2]; Plasma (pH 7.23)): 27.5 h
CN(c1ccccc1)P(=O)(O)OCCCc1cccnc1 [Entry H11]	0.48 hr		9.6 hr	10 day days	1.1 days	
O=P(O)(NCCc1ccccc1)OCCCc1ccccn1 [Entry H41]	2.1 hr	9.63 hr	19.3 hr	11 days	24.1 hr	
CN(CCc1ccccc1)P(=O)(O)OCCCc1ccccn1 [Entry H43]	0.21 hr		1.2 hr	21.4 hr	3.85 hr	½ Life for P—N Bond Hydrolysis, Plasma ([2]; Plasma (pH 7.38)): 19.3 h
CN(CCc1ccccc1)P(=O)(O)OCCc1ccccn1 [Entry H69]						½ Lives for P—N Bond Hydrolysis, pH 3 (result in words) [1]: Unstable; ½ Lives for P—N Bond Hydrolysis, pH 4.5 (result in words) [1]: Unstable; ½ Lives for P—N Bond Hydrolysis, pH 5.5 (result in words) ([1]; pH 5.5): Unstable; ½ Lives for P—N Bond Hydrolysis, pH 6.5 (result in words) [1]: Unstable; ½ Lives for P—N Bond Hydrolysis, pH 7.4 (result in words) [1]: Unstable
CN(CCc1ccccc1)P(=O)(O)OCCc1cccnc1 [Entry H99]	0.39 hr	1.93 hr	3.2 hr	1.6 days	9.6 hr	
CN(c1ccccc1)P(=O)(O)OCCc1cccnc1 [Entry H105]	0.64 hr	3.85 hr	9.6 hr	10 days	19.3 hr	
CN(c1ccccc1)P(=O)(O)OCCc1ccccn1 [Entry H115]						½ Lives for P—N Bond Hydrolysis, pH 3 (result in words) [1]: Unstable; ½ Lives for P—N Bond Hydrolysis, pH 4.5 (result in words) [1]: Unstable; ½ Lives for P—N Bond Hydrolysis, pH 5.5 (result in words) ([1]; pH 5.5): Unstable; ½ Lives for P—N Bond Hydrolysis, pH 6.5 (result in words) [1]: Unstable; ½ Lives for P—N Bond Hydrolysis, pH 7.4 (result in words) [1]: Unstable
CN(CCc1ccccc1)P(=O)(O)OCCCc1ccccc1 [Entry H133]			9.6 hr			½ Life for P—N Bond Hydrolysis, pH 5.5, second value in parentheses ([1]; pH 5.5, value in parentheses, meaning not explained): 1.9 hr
Cc1ccc(C(=O)NC(COP(=O)(O)N(C)CCc2ccccc2)C(=O)O)cc1 (stereo not drawn) [Entry H155]			3.98 min	1.93 hr	9.63 min	
Cc1ccc(C(=O)NC(COP(=O)(O)NCCc2ccccc2)C(=O)O)cc1 (stereo not drawn) [Entry H157]		5.25 min	38.5 min	19.3 hr	1.93 hr	
Cc1ccc(C(=O)NC(COP(=O)(O)Nc2ccccc2)C(=O)O)cc1 (stereo not drawn) [Entry H159]	12.8 min	3.21 hr	19.25 hr	26.7 days	2.0 days	
Cc1ccc(C(=O)NC(COP(=O)(O)N(C)c2ccccc2)C(=O)O)cc1 (stereo not drawn) [Entry H161]		0.98 min	16.5 min	6.42 hr	38.5 min	
Cc1ccc(C(=O)NC(CCOP(=O)(O)N(C)CCc2ccccc2)C(=O)O)cc1 (stereo not drawn) [Entry H179]		0.96 hr	9.62 hr	2 Days days		
CN(c1ccccc1)P(=O)(O)OCc1ccccc1C(=O)O [Entry I11]			14.4 min	6.42 hr	57.8 min	
